According to paper PMC8048873 (The Plant Journal, 2021):

Biological target: T1, CERK1 ectodomain (CERK1-ECD; LYK1) (Arabidopsis thaliana, UniProt A8R7E6)
T1 sequence (A8R7E6 24-232): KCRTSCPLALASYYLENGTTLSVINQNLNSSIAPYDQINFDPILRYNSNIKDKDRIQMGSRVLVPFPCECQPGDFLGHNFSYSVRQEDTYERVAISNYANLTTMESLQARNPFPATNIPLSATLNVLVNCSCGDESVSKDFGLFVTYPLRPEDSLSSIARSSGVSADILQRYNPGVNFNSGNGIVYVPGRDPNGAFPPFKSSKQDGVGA
Assay: isothermal titration calorimetry
Format: binding
Settings: 20 mM MES pH 6.5, 150 mM NaCl, 25°C; 50 µM protein in cell, ligand 500 µM or 1 mM; n = 2

With `CC(=O)N[C@H]1[C@H](O[C@H]2[C@H](O)[C@@H](NC(C)=O)[C@H](O[C@H]3[C@H](O)[C@@H](NC(C)=O)C(O)O[C@@H]3CO)O[C@@H]2CO)O[C@H](CO)[C@@H](O[C@@H]2O[C@H](CO)[C@@H](O[C@@H]3O[C@H](CO)[C@@H](O[C@@H]4O[C@H](CO)[C@@H](O)[C@H](O)[C@H]4NC(C)=O)[C@H](O)[C@H]3NC(C)=O)[C@H](O)[C@H]2NC(C)=O)[C@@H]1O` (stereo partly drawn) [1,4‐β‐D‐(GlcNAc)6, chitohexaose] the Kd was 37.5 ± 10 µM.
